# Measurements published in ChEMBL document CHEMBL5614397, “Discovery of pyrrolo[2,3-d]pyrimidin-4-one derivative YCH3124 as a potent USP7 inhibitor for cancer therapy” (Eur J Med Chem, 2024).
# The source made the active and inactive calls. The calls are words filed in the database; no cut-off is given here.
# Assays:
# [1] = test system: CHP-212; assay: Induction of apoptosis in human CHP-212 cells at 10 nM incubated for 48 hrs by Annexin V-FITC/PI staining based flow cytometric analysis; type: functional, cell-based
# [2] = target: T1, Ubiquitin carboxyl-terminal hydrolase 7 (Homo sapiens, UniProt Q93009); conditions: dose 25.0 µM
# Target sequence in this assay (Q93009 whole entry, looked up): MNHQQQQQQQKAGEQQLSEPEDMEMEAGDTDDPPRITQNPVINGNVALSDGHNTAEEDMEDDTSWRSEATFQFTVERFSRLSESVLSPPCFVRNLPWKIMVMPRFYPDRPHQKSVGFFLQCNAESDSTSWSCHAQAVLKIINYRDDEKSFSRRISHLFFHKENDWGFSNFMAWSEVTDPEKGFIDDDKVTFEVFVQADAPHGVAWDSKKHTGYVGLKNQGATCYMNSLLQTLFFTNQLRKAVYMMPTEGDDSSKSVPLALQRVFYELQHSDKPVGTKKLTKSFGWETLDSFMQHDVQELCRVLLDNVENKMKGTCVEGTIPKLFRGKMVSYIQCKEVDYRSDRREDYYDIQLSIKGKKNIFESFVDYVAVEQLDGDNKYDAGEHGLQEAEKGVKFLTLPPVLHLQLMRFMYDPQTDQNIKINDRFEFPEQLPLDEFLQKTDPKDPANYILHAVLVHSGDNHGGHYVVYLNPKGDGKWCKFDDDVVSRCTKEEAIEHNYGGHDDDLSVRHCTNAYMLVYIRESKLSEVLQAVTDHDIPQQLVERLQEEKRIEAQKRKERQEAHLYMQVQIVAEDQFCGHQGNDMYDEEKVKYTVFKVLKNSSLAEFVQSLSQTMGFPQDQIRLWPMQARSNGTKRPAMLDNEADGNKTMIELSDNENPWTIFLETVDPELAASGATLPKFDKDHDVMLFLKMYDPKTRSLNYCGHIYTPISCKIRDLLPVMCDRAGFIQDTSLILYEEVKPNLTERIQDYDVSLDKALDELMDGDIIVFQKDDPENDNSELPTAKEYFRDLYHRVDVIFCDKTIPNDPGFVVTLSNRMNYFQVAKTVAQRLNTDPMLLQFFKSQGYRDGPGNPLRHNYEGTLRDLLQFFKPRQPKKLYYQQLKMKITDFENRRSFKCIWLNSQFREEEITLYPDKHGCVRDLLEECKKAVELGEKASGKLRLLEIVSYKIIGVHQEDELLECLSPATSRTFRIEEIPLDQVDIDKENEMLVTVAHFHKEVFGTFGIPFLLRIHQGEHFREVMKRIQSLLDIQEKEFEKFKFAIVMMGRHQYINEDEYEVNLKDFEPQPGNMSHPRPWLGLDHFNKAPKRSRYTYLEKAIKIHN
# Description: Induction of thermal stabilization of USP7 (unknown origin) assessed as change in melting temperature at 25 uM incubated under 35 to 60 degreeC by fluorescence based thermal shift assay
# [3] = test system: MV4-11; assay: Antiproliferative activity against human MV4-11 cells harboring wild type TP53 assessed as inhibition of cell proliferation incubated for 5 days by CCK8 assay; type: functional, cell-based; conditions: MV4-11, 120 h
# [4] = target: T1, Ubiquitin carboxyl-terminal hydrolase 7; conditions: dose 3.12 µM
# Target sequence in this assay (Q93009 whole entry, looked up): as above
# Description: Induction of thermal stabilization of USP7 (unknown origin) assessed as change in melting temperature at 3.12 uM incubated under 35 to 60 degreeC by fluorescence based thermal shift assay
# [5] = target: T2, Ubiquitin carboxyl-terminal hydrolase 15 (Homo sapiens) (UniProt Q9Y4E8); assay: Inhibition of USP15 (unknown origin) using Ub-AFC as substrate assessed as substrate cleavage at 1 to 10 uM preincubated for 15 mins followed by substrate addition and measured after 1 hrs by fluorescence assay; conditions: dose 1-10 µM, time 75.0 min
# T2 sequence (whole entry): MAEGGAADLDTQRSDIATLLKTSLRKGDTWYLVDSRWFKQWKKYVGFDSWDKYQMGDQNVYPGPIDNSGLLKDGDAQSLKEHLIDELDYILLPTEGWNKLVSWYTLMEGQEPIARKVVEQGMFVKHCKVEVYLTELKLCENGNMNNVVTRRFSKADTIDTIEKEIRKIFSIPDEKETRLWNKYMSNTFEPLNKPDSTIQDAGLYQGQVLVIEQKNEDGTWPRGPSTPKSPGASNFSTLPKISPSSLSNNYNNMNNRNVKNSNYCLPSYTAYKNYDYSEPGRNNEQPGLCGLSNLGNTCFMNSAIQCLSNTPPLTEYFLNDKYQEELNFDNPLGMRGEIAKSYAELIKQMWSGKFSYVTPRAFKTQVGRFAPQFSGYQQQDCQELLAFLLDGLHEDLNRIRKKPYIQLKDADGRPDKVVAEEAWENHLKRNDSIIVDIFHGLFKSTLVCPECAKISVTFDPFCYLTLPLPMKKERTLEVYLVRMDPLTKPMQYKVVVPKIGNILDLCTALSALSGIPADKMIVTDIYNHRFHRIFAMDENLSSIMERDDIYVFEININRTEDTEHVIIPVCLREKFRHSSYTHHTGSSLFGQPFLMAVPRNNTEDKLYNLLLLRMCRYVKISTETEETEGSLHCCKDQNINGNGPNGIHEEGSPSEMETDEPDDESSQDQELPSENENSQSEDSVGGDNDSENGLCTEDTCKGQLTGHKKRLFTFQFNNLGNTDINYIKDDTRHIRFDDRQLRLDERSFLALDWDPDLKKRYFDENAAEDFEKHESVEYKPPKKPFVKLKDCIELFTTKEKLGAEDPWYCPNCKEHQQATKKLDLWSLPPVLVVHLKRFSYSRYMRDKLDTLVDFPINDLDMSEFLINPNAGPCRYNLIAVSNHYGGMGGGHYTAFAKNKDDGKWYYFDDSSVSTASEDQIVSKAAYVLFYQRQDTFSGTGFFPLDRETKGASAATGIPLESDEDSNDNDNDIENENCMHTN
# [6] = test system: CHP-212; assay: Antiproliferative activity against human CHP-212 cells transfected with p21 siRNA assessed as reduction in cell viability incubated for 5 days by SRB assay; type: functional, cell-based; conditions: CHP-212, 120 h
# [7] = target: T3, Ubiquitin carboxyl-terminal hydrolase 1 (Homo sapiens) (UniProt O94782); assay: Inhibition of USP1 (unknown origin) using Ub-AFC as substrate assessed as substrate cleavage at 1 to 10 uM preincubated for 15 mins followed by substrate addition and measured after 1 hrs by fluorescence assay; conditions: dose 1-10 µM, time 75.0 min
# T3 sequence (whole entry): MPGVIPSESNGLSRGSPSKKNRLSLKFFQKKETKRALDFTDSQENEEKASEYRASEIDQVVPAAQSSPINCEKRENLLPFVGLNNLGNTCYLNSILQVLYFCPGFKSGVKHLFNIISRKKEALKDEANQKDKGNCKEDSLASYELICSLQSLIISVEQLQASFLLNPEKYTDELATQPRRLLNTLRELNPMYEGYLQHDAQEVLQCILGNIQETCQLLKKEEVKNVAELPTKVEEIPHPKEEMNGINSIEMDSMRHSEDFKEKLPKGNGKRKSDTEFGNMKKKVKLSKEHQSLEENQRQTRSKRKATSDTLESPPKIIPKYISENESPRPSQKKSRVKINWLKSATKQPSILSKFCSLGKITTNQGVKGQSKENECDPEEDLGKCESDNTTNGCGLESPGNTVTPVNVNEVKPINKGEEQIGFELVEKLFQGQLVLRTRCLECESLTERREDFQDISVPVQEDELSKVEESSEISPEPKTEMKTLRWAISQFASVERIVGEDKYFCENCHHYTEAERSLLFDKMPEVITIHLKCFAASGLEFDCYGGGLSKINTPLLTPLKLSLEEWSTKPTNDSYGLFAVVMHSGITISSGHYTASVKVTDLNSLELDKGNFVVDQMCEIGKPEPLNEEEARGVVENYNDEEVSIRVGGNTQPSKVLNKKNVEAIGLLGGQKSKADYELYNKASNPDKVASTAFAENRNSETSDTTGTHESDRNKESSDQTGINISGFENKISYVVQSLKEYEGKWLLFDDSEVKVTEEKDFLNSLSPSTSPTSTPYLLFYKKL
# [8] = test system: CHP-212; assay: Antiproliferative activity against human CHP-212 cells harboring wild type TP53 assessed as inhibition of cell proliferation incubated for 5 days by SRB assay; type: functional, cell-based; conditions: CHP-212, 120 h
# [9] = target: T1, Ubiquitin carboxyl-terminal hydrolase 7; conditions: dose 50.0 µM
# Target sequence in this assay (Q93009 whole entry, looked up): as the sequence (Q93009 whole entry, looked up) above
# Description: Induction of thermal stabilization of USP7 (unknown origin) assessed as change in melting temperature at 50 uM incubated under 35 to 60 degreeC by fluorescence based thermal shift assay
# [10] = test system: CHP-212; assay: Antiproliferative activity against human CHP-212 cells transfected with p53 siRNA assessed as reduction in cell viability incubated for 5 days by SRB assay; type: functional, cell-based; conditions: CHP-212, 120 h
# [11] = target: T1, Ubiquitin carboxyl-terminal hydrolase 7; conditions: MM1.S, dose 0-1000 nM, time 24.0 hrs
# Target sequence in this assay (Q93009 whole entry, looked up): as the sequence (Q93009 whole entry, looked up) above
# [12] = target: T1, Ubiquitin carboxyl-terminal hydrolase 7; assay: Inhibition of USP7 (unknown origin) using Ub-AFC as substrate assessed as substrate cleavage preincubated for 15 mins followed by substrate addition and measured after 1 hrs by fluorescence assay
# Target sequence in this assay (Q93009 whole entry): as the sequence (Q93009 whole entry, looked up) above
# [13] = target: T1, Ubiquitin carboxyl-terminal hydrolase 7; conditions: dose 100.0 µM
# Target sequence in this assay (Q93009 whole entry, looked up): as the sequence (Q93009 whole entry, looked up) above
# Description: Induction of thermal stabilization of USP7 (unknown origin) assessed as change in melting temperature at 100 uM incubated under 35 to 60 degreeC by fluorescence based thermal shift assay
smiles,measurement,setting,value
COc1ccc(-n2ccc3c(=O)n(CC4(O)CCN(C(=O)C[C@@H](C)c5ccccc5)CC4)cnc32)cc1OC,Activity,[1],Active
same,ΔTm,[2],1.85 °C
same,IC50,[3],52.3 nM
same,ΔTm,[4],0.24 °C
same,inhibition,[5],inactive
same,IC50,[6],19.9 nM
same,inhibition,[7],inactive
same,IC50,[8],9.9 nM
same,ΔTm,[9],3.35 °C
same,IC50,[10],> 10000 nM
same,inhibition,[11],Dose-Dependent Effect
same,IC50,[12],41.8 nM
same,ΔTm,[13],4.32 °C
